Assay results from patent US20040122109A1, “Preparation for hair and/or scalp” (priority 2001, published 2004).

Legend:
C3H mice = test: Hair restoration test: hair growth score on the shaved back of C3H mice; assay type: in vivo, mouse; conditions: for Hair growth score of C3H mouse, before application: 7-week old male C3H mice in telogen, shaved back, baseline, score 1-5 (1 = skin pink, 5 = hair growth in 60% or more); for Hair growth score of C3H mouse, before application / Hair growth score of C3H mouse, after application: n = 7, Average ± S.D.; for Hair growth score of C3H mouse, after application: 10% in PEG1000 applied to shaved portion once a day, total of 14 times, score 1-5 (higher = more hair growth); for Hair restoration activity (in words): C3H mice, 10% in PEG1000, 14 applications
Source text: The back of each of 7-week old male C3H mice in the telogen period of the hair cycle was carefully shaved, and then groups of seven mice each without wounds at the backs were subjected to a test. In a control group, only polyethylene glycol 1000 (PEG1000) used as a base was applied to each mouse, while in an evaluation group, 10% oxidized coenzyme Q10 or 10% reduced coenzyme Q10 (reduced coenzyme Q10:oxidized coenzyme Q10=95:5) was applied to the shaved portion once a day (total of 14 times). After the application, the back of each mouse was evaluated based on the scores below to evaluate the hair restoration activity of a compound.
2; Less than 30% of the shaved portion was discolored to gray.

hairless rats = test: Prevention of hair removal: hair removal score of hairless rats; assay type: in vivo, rat; conditions: for Hair removal score of hairless rat, before application: 4-week old male hairless rats in pilose period, baseline, score 1-5 (1 = no hair removal, 5 = hair removal in 60% or more); for Hair removal score of hairless rat, before application / Hair removal score of hairless rat, 71 days after: n = 5, Average ± S.D.; for Hair removal score of hairless rat, 71 days after: 10% in PEG1000 applied to back once a day for 12 days, 71st day after application was terminated, score 1-5 (lower = less hair removal); for Activity of preventing hair removal (in words): hairless rats, 10% in PEG1000, once a day for 12 days
Source text: 4-week old male hairless rats in the pilose period were used for evaluating the activity of preventing hair removal. The same samples as those used in Example 1 were used. In each group of five hairless rats, each of the samples was applied to the back of each rat once a day for 12 days, and then a hair removal state was observed after the application was stopped. The hair removal state was observed based on the following scores.
1; No hair removal was observed.
2; Hair became short in 30% or less of the applied region.

SMILES	Hair growth score of C3H mouse, before application (C3H mice)	Hair growth score of C3H mouse, after application (C3H mice)	Hair restoration activity (in words) (C3H mice)	Hair removal score of hairless rat, before application (hairless rats)	Hair removal score of hairless rat, 71 days after (hairless rats)	Activity of preventing hair removal (in words) (hairless rats)
COc1c(O)c(C)c(C/C=C(\C)CC/C=C(\C)CC/C=C(\C)CC/C=C(\C)CC/C=C(\C)CC/C=C(\C)CC/C=C(\C)CC/C=C(\C)CC/C=C(\C)CCC=C(C)C)c(O)c1OC [Reduced coenzyme Q10, reduced coenzyme Q10]	1.0 ± 0.00	3.2 ± 0.64	a higher hair restoration activity was observed	1.0 ± 0.00	3.0 ± 0.71	has the activity of preventing hair removal
COC1=C(OC)C(=O)C(C/C=C(\C)CC/C=C(\C)CC/C=C(\C)CC/C=C(\C)CC/C=C(\C)CC/C=C(\C)CC/C=C(\C)CC/C=C(\C)CC/C=C(\C)CCC=C(C)C)=C(C)C1=O [Oxidized coenzyme Q10, oxidized coenzyme Q10]	1.0 ± 0.00	2.7 ± 0.35	a hair restoration activity was observed	1.0 ± 0.00	3.6 ± 0.24	has the activity of preventing hair removal
